Measurements as given in article PMC4265264 (Hepatology (Baltimore, Md.), 2014).
pIC50: −log10 of the molar value.

Key:
[1] = test system: HCVpp; assay: HCV pseudoparticle; format: cell-based, hepatitis C virus; details: Huh-7.5.1 cells pretreated 1 h, HCVpp 4 h, read at 72 h
[2] = test system: HBV; assay: HBV infection; format: cell-based, hepatitis B virus; details: HepaRG
[3] = test system: HBV; assay: HBV infection of primary human hepatocytes; format: cell-based, hepatitis B virus; details: CsA 4 μM, HBs in medium or HBV DNA in cells at 12 days
[4] = test system: HBV; assay: HBV attachment and internalization assay in HepaRG cells; format: cell-based, hepatitis B virus; details: CsA 4 μM
[5] = test system: HBV particles; assay: Pretreatment of HBV particles with compounds, then infection of HepaRG cells; format: cell-based, hepatitis B virus; details: 30 min 37°C, compound removed by ultrafiltration, HBs at 12 days
[6] = test system: calcineurin/NF-AT pathway; assay: Calcineurin/NF-AT reporter assay in Jurkat cells; format: cell-based, human; details: pNF-AT-luc, PMA and ionomycin
[7] = test system: HBV; assay: HBV infection of HepG2 cells overexpressing NTCP; format: cell-based, hepatitis B virus; details: pretreated 2 h, HBV 16 h
[8] = test system: HCV; details: read-out: anti-HCV replication activity (IC50); cited from earlier work
[9] = test system: HBV; assay: HBV replication in HepAD38 cells, southern blot of core particle HBV DNA; format: cell-based, hepatitis B virus; details: lamivudine 1 μM, 6 days

## CO/C1=C\C(C)=C\[C@@H](C)[C@@H](O)[C@@H](C)C/C(C)=C/C=C/[C@H](OC)[C@@H]([C@@H](C)[C@@H](O)[C@H](C)[C@@]2(O)C[C@@H](O)[C@H](C)[C@@H](C(C)C)O2)OC1=O [bafilomycin A1]
[1]
  HCV entry (HCVpp luciferase activity): inhibition of HCV entry

## cyclosporin A [CsA]
[2]; CsA 4 μM, 12 days postinfection
  HBc protein, HBV DNA and cccDNA in the cells and HBe in the medium: significantly decreased
[2]; CsA 4 μM, Fig. 2E-b
  HBs and HBe production, compound added during HBV infection (time of addition): decreased HBs and HBe production
[2]; CsA 4 μM, Fig. 2E-c
  HBs and HBe production, compound added after HBV infection (time of addition): did not have an anti‐HBV effect
[2]; protocol Fig. 1A, CsA 0.5-4 μM, analogs 0.25-4 μM
  Dose-response of HBs (and HBe) secretion: decreased HBs and HBe secreted from the infected cells
[3]
  Infection of different HBV genotypes into PHHs: reduced the infection of HBV genotype A, C, or D
[4]; 4°C 3 h, real-time PCR
  Attached HBV DNA (attachment assay): slightly reduced the amount of attached HBV DNA, although the effect was not statistically significant
[4]; 37°C 16 h after attachment, trypsinized
  Internalized HBV DNA (internalization assay): significant reduction of HBV DNA
[5]
  HBV infectivity after preincubation of HBV with compound: did not affect HBV infectivity
[1]
  HCV entry (HCVpp luciferase activity): did not affect the entry of HCV
[6]
  Calcineurin (CN)/NF-AT pathway inhibition: can inhibit CN
[7]
  HBs and HBe secretion of HBV-infected HepG2-NTCP cells: reduced HBs and HBe secretion

## C=CC[C@@H]1/C=C(\C)C[C@H](C)C[C@H](OC)[C@H]2O[C@@](O)(C(=O)C(=O)N3CCCC[C@H]3C(=O)O[C@H](/C(C)=C/[C@@H]3CC[C@@H](O)[C@H](OC)C3)[C@H](C)[C@@H](O)CC1=O)[C@H](C)C[C@@H]2OC [FK506]
[6]
  Calcineurin (CN)/NF-AT pathway inhibition: can inhibit CN

## PSC833
[6]
  Calcineurin (CN)/NF-AT pathway inhibition: inactive for CN inhibition

## heparin
[5]
  HBV infectivity after preincubation of HBV with compound: antagonizing effect
[1]
  HCV entry (HCVpp luciferase activity): inhibition of HCV entry

## Alisporivir
[8]
  pIC50: 6.66

## Nc1ccn([C@@H]2CS[C@H](CO)O2)c(=O)n1 [lamivudine]
[9]
  HBV DNA in HepAD38 cells: drastically decreased HBV DNAs
